Test results reported in ChEMBL document CHEMBL1201862, “PubChem BioAssay data set” (2004).
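All cell lines were grown in 96-well plates and treated with compound for 48 hours. The concentration for 50% growth inhibition is given as GI50.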 Calls of active or inactive are those of the source. No stated cut-off is given here; in the data, active = GI50 up to about 1.1 µM and inactive = higher.

Key:
Assay in all cases: DTP human tumour cell line panel, 48 h
786-0 = system: 786-0
A498 = system: A498
A549 = system: A549
ACHN = system: ACHN
CAKI-1 = system: CAKI-1
CCRF-CEM = system: CCRF-CEM
COLO 205 = system: COLO 205
DLD-1 = system: DLD-1
DMS-114 = system: DMS-114
DMS-273 = system: DMS-273
EKVX = system: EKVX
HCC 2998 = system: HCC 2998
HCT-116 = system: HCT-116
HCT-15 = system: HCT-15
HL-60 = system: HL-60
HOP-62 = system: HOP-62
HOP-92 = system: HOP-92
HT-29 = system: HT-29
IGROV-1 = system: IGROV-1
K562 = system: K562
KM-20L2 = system: KM-20L2
KM12 = system: KM12
LOX IMVI = system: LOX IMVI
LXFL 529 = system: LXFL 529
M14 = system: M14
M19-MEL = system: M19-MEL
MOLT-4 = system: MOLT-4
Malme-3M = system: Malme-3M
NCI-H226 = system: NCI-H226
NCI-H23 = system: NCI-H23
NCI-H460 = system: NCI-H460
NCI-H522 = system: NCI-H522
OVCAR-3 = system: OVCAR-3
OVCAR-4 = system: OVCAR-4
OVCAR-5 = system: OVCAR-5
OVCAR-8 = system: OVCAR-8
RPMI-8226 = system: RPMI-8226
RXF 393 = system: RXF 393
RXF 631 = system: RXF 631
SF-268 = system: SF-268
SF-295 = system: SF-295
SF-539 = system: SF-539
SK-MEL-28 = system: SK-MEL-28
SK-MEL-2 = system: SK-MEL-2
SK-MEL-5 = system: SK-MEL-5
SK-OV-3 = system: SK-OV-3
SN12C = system: SN12C
SNB-19 = system: SNB-19
SNB-75 = system: SNB-75
SNB-78 = system: SNB-78
SR = system: SR
SW-620 = system: SW-620
TK-10 = system: TK-10
U-251 = system: U-251
UACC-257 = system: UACC-257
UACC-62 = system: UACC-62
UO-31 = system: UO-31
XF498 = system: XF498
DU-145 = system: DU-145
HOP-18 = system: HOP-18
Hs-578T = system: Hs-578T
MCF7 = system: MCF7
MDA-MB-231 = system: MDA-MB-231
MDA-MB-435 = system: MDA-MB-435
MDA-N = system: MDA-N
NCI/ADR-RES = system: NCI/ADR-RES
PC-3 = system: PC-3
T47D = system: T47D

Measured: GI50

COc1ccc2nc3c(c(NCCCN(C)C)c2c1)CCCC3
16.3 µM: HCT-15
inactive: 786-0 15.4 µM | A498 20.3 µM | A549 21.4 µM | ACHN 20.4 µM | CAKI-1 11.9 µM | CCRF-CEM 4.83 µM | COLO 205 10.8 µM | DLD-1 7.66 µM | DMS-114 13.9 µM | DMS-273 11.8 µM | EKVX 17.4 µM | HCC 2998 8.81 µM | HCT-116 4.74 µM | HL-60 7.67 µM | HOP-62 16.4 µM | HOP-92 5.28 µM | HT-29 5.41 µM | IGROV-1 19.3 µM | K562 2.25 µM | KM-20L2 6.7 µM | KM12 12.5 µM | LOX IMVI 12.8 µM | LXFL 529 12.7 µM | M14 13.3 µM | M19-MEL 17.1 µM | MOLT-4 3.4 µM | Malme-3M 19.7 µM | NCI-H226 16.3 µM | NCI-H23 17.1 µM | NCI-H460 10.3 µM | NCI-H522 14.9 µM | OVCAR-3 19.4 µM | OVCAR-4 4.43 µM | OVCAR-5 13.5 µM | OVCAR-8 15 µM | RPMI-8226 6.25 µM | RXF 393 14.8 µM | RXF 631 14.9 µM | SF-268 > 10 µM | SF-295 14.6 µM | SF-539 16.8 µM | SK-MEL-28 16.9 µM | SK-MEL-2 17.3 µM | SK-MEL-5 15.8 µM | SK-OV-3 20.5 µM | SN12C 17.2 µM | SNB-19 21.6 µM | SNB-75 13.2 µM | SNB-78 7.83 µM | SR 2.42 µM | SW-620 10.7 µM | TK-10 26.1 µM | U-251 15.5 µM | UACC-257 17 µM | UACC-62 16.8 µM | UO-31 16 µM | XF498 4.15 µM

COc1cc([C@H]2c3cc4c(cc3O[C@@]3(O)COC(=O)[C@@H]23)OCO4)cc(OC)c1OC
> 100 µM: HCT-15
inactive: 786-0 > 100 µM | A498 > 100 µM | A549 > 100 µM | ACHN > 100 µM | CAKI-1 > 100 µM | CCRF-CEM > 100 µM | COLO 205 > 100 µM | DLD-1 > 100 µM | DMS-114 > 100 µM | DMS-273 > 100 µM | DU-145 > 100 µM | EKVX > 100 µM | HCC 2998 > 100 µM | HCT-116 > 100 µM | HL-60 > 100 µM | HOP-18 > 100 µM | HOP-62 > 100 µM | HOP-92 > 100 µM | HT-29 > 100 µM | Hs-578T > 100 µM | IGROV-1 > 100 µM | K562 > 100 µM | KM-20L2 > 100 µM | KM12 > 100 µM | LOX IMVI > 100 µM | M14 > 100 µM | M19-MEL > 100 µM | MCF7 > 100 µM | MDA-MB-231 > 100 µM | MDA-MB-435 > 100 µM | MDA-N > 100 µM | MOLT-4 > 100 µM | Malme-3M > 100 µM | NCI-H226 > 100 µM | NCI-H23 > 10 µM | NCI-H460 > 100 µM | NCI-H522 > 100 µM | NCI/ADR-RES > 100 µM | OVCAR-3 > 100 µM | OVCAR-4 > 100 µM | OVCAR-5 > 100 µM | OVCAR-8 > 100 µM | PC-3 > 100 µM | RPMI-8226 > 100 µM | RXF 393 > 10 µM | RXF 631 > 100 µM | SF-268 > 100 µM | SF-295 > 100 µM | SF-539 > 100 µM | SK-MEL-28 > 100 µM | SK-MEL-2 > 100 µM | SK-MEL-5 > 100 µM | SK-OV-3 > 100 µM | SN12C > 100 µM | SNB-19 > 100 µM | SNB-75 > 100 µM | SNB-78 > 100 µM | SR > 100 µM | SW-620 > 100 µM | T47D > 100 µM | TK-10 > 100 µM | U-251 > 100 µM | UACC-257 > 100 µM | UACC-62 > 100 µM | UO-31 > 100 µM | XF498 > 100 µM

CC(C)(C)C#C[P+](c1ccccc1)(c1ccccc1)c1ccccc1
active: 786-0 0.337 µM | A498 0.23 µM | A549 0.253 µM | CAKI-1 0.804 µM | CCRF-CEM 0.108 µM | COLO 205 0.17 µM | DLD-1 0.191 µM | EKVX 0.566 µM | HCC 2998 0.293 µM | HCT-116 0.177 µM | HL-60 0.057 µM | HOP-18 0.855 µM | HOP-62 0.277 µM | HOP-92 0.194 µM | HT-29 0.292 µM | IGROV-1 0.578 µM | K562 0.0498 µM | KM-20L2 0.345 µM | KM12 0.238 µM | LOX IMVI 0.328 µM | LXFL 529 0.0586 µM | M14 0.225 µM | MOLT-4 0.197 µM | Malme-3M 0.349 µM | NCI-H226 0.33 µM | NCI-H23 0.353 µM | NCI-H460 0.152 µM | NCI-H522 0.15 µM | OVCAR-3 0.351 µM | OVCAR-4 0.211 µM | OVCAR-8 0.185 µM | RPMI-8226 0.0377 µM | RXF 393 0.329 µM | RXF 631 1 µM | SF-268 0.203 µM | SF-295 0.292 µM | SF-539 0.373 µM | SK-MEL-28 0.0728 µM | SK-MEL-2 0.409 µM | SK-MEL-5 0.187 µM | SK-OV-3 0.655 µM | SN12C 0.192 µM | SNB-19 0.274 µM | SNB-75 0.0348 µM | SNB-78 0.339 µM | SR 0.149 µM | SW-620 0.152 µM | U-251 0.119 µM | UACC-257 0.366 µM | UACC-62 0.297 µM | UO-31 1.04 µM
inactive: ACHN 1.39 µM | OVCAR-5 1.15 µM | TK-10 1.43 µM
0.655 µM: HCT-15

Cc1ccccc1-n1c(=S)[nH]c2c(sc(=O)n2-c2ccccc2C)c1=O
> 100 µM: HCT-15
inactive: 786-0 > 100 µM | A498 > 100 µM | A549 > 100 µM | ACHN > 100 µM | CAKI-1 > 100 µM | CCRF-CEM > 100 µM | COLO 205 > 100 µM | DLD-1 > 100 µM | DMS-114 > 100 µM | DMS-273 > 100 µM | EKVX > 100 µM | HCC 2998 > 100 µM | HCT-116 > 100 µM | HL-60 > 100 µM | HOP-18 > 100 µM | HOP-62 > 100 µM | HOP-92 > 100 µM | HT-29 > 100 µM | IGROV-1 > 100 µM | K562 > 100 µM | KM-20L2 > 100 µM | KM12 > 100 µM | LXFL 529 > 100 µM | M14 > 100 µM | M19-MEL > 100 µM | MOLT-4 > 100 µM | Malme-3M > 100 µM | NCI-H226 > 100 µM | NCI-H23 > 100 µM | NCI-H460 > 100 µM | NCI-H522 > 100 µM | OVCAR-3 > 100 µM | OVCAR-4 > 100 µM | OVCAR-5 > 100 µM | OVCAR-8 > 100 µM | RPMI-8226 > 100 µM | RXF 393 > 100 µM | RXF 631 > 100 µM | SF-268 > 100 µM | SF-295 > 100 µM | SF-539 > 100 µM | SK-MEL-28 > 100 µM | SK-MEL-2 > 100 µM | SK-MEL-5 > 100 µM | SK-OV-3 > 100 µM | SN12C > 100 µM | SNB-19 > 100 µM | SNB-75 > 100 µM | SNB-78 > 100 µM | SR > 100 µM | SW-620 > 100 µM | U-251 > 100 µM | UACC-257 > 100 µM | UACC-62 > 100 µM | UO-31 > 100 µM
